Reference: article PMC9552147 (Nature Communications, 2022)
Converted amounts (≈) assume the structure as drawn. “And” between values parts separate entries of the source, which are not always exact repeats. Identical values can stand only once. Like-named read-outs stand apart in the source and are kept apart here.

Experiments:
HepG2 cells [1] = tested on: HepG2 cells
M. tuberculosis H37Rv [2] = experiment: microbe, parasite or virus in culture; type: cell-based, Mycobacterium tuberculosis; conditions: for MIC: Mycobacterium tuberculosis, H37RV
HepG2 cells [3] = experiment: cells; type: cell-based; conditions: Homo sapiens
Protocol: (§1) Cells were trypsinized in 0.05% trypsin-EDTA (Gibco) and re-suspended in 10 mL growth medium. Cells were filtered through a 40 µm filter and seeded in collagen-coated 96-well plates (Life technologies #A11428-03) at 3500 cells/well in a volume of 170 µL/well with plates agitated upon cell addition to ensure even distribution. […] The plates were incubated an additional 72 h after which the medium was gently aspirated and replaced with 4% paraformaldehyde (100 µL/well) prepared in Dulbecco’s PBS. After 20 min fixation, the medium was removed, and wells washed three times with 200 µL/well PBS. Wells were treated for 5 min with 0.5% acetic acid (100 μL/well), wells were washed with 200 μL/well PBS and subsequently treated with permeabilization buffer (0.1 % Triton X-100) (100 μL/well) for 30 min. Buffer was removed and replaced with 2× blocking buffer from the ab110217 MitoBiogenesis™ In-Cell ELISA Kit (Abcam). After 2 h incubation, primary antibody was added (100 μl/well) in 1× blocking buffer per manufacturer’s recommendation except for the background control wells which received 100 μl/well 1× blocking buffer only. […] Alkaline phosphatase/horse radish peroxidase-labeled secondary antibody solution prepared according to the manufacturer’s instructions in 1× blocking buffer was added at 100 μl/well to all wells. After 1 h incubation, wells were washed 4 times with wash buffer (200 μl/well) followed by addition of 100 μl/well freshly prepared per manufacturer’s recommendation alkaline peroxidase development solution. […] The reagent was removed, and 100 μl/well horse radish peroxidase development solution added. […] The development solution was completely removed, and plates blotted to dryness after which 1× Janus green stain (50 μl/well) was added. […] Data was interpreted per manufacturer’s instructions and plotted in GraphPad Prism to calculate IC20 and IC50 values for Cox-I/SDHA and cell viability.

[4] = tested on: COX1 production (mitochondrial ribosomes) in HepG2 cells; experiment: cells; conditions: Homo sapiens
Protocol: as §1

[5] = tested on: SDHA production (cytoplasmic ribosomes) in HepG2 cells
Protocol: as §1

[6] = tested on: SDHA production (cytoplasmic ribosomes) in HepG2 cells; experiment: cells; conditions: Homo sapiens
Protocol: as §1

[7] = tested on: M. tuberculosis H37Rv:luc within THP1 monocytes; experiment: microbe, parasite or virus in culture; type: cell-based; conditions: Mycobacterium tuberculosis
[8] = tested on: COX1 production (mitochondrial ribosomes) in HepG2 cells; conditions: for COX1 production: human; for IC50: read-out: Cox IC50
Protocol: as §1

in vitro = conditions: human, HepG2 IC50 (cytotoxicity)
HepG2 cells [9] = experiment: cells; conditions: Homo sapiens
[10] = tested on: lysine biosynthetic pathway metabolites in M. tuberculosis; type: cell-based, Mycobacterium tuberculosis
M. tuberculosis H37Rv [11] = tested on: M. tuberculosis H37Rv
M. tuberculosis H37Rv [12] = tested on: M. tuberculosis H37Rv; parameters: species or system C57BL/6 mice; conditions: in vivo, 30 mg/kg
M. tuberculosis = tested on: M. tuberculosis; parameters: species or system C57BL/6 mice; conditions: in vivo, 100 mg/kg
M. tuberculosis H37Rv [13] = type: cell-based, Mycobacterium tuberculosis; parameters: MIC, No Lysine / MIC, No Lysine, Ave: unit not given beside the values
M. tuberculosis H37Rv [14] = tested on: M. tuberculosis H37Rv; parameters: species or system BALB/c mice; conditions: in vivo

Nc1cc2c(c(F)n1)C(=O)N(C1CCCCC1)C2 [Compound 2]
IC50 (HepG2 cells [1]): 7.94 µM | WT MIC (M. tuberculosis H37Rv [2]): 0.74 µM | MIC (M. tuberculosis H37Rv [2]; read-out: MIC (µM), single replicate): 0.6 µM (≈ 0.15 µg/mL) | MIC (M. tuberculosis H37Rv [2]; read-out: MIC, Geo Mean): 0.6 µM (≈ 0.15 µg/mL) | MIC (M. tuberculosis H37Rv [2]; read-out: MIC, Mean): 0.6 µM (≈ 0.15 µg/mL) | MIC (M. tuberculosis H37Rv [2]; read-out: MIC, Median): 0.6 µM (≈ 0.15 µg/mL) | MIC (M. tuberculosis H37Rv [2]; read-out: WT MIC): 0.89 µM (≈ 0.222 µg/mL) | MIC (M. tuberculosis H37Rv [2]; read-out: WT MIC, Ave): 0.82 µM (≈ 0.204 µg/mL) | IC50 (HepG2 cells [3]; HepG2, read-out: JG IC50, Ave): 3.3 µM | IC50 ([4]; HepG2, read-out: Cox IC50): 2.67 µM | IC50 ([4]; HepG2, read-out: Cox IC50, Ave): 3.6 µM | SDHA production ([5]; human): blocked expression of both COX1 and SDHA | IC50 ([5]; read-out: SDH-A IC50): 2.89 µM and 3.53 µM and 3.87 µM | IC50 ([6]; HepG2, read-out: SDH-A IC50): 3.04 µM | IC50 ([6]; HepG2, read-out: SDH-A IC50, Ave): 3.3 µM | MIC [7]: 0.71 µM (≈ 0.177 µg/mL) | COX1 production [8]: blocked expression of both COX1 and SDHA | IC50 [8]: 3.54 µM and 4.59 µM and 3.47 µM | IC50 (in vitro): 11 µM | IC50 (HepG2 cells [9]; HepG2, read-out: IC50 (µM), Geo Mean): 10.7 µM | IC50 (HepG2 cells [9]; HepG2, read-out: IC50 (µM), Mean): 11.8 µM

Nc1ncc2c(n1)CC(C1CCC1)C2=O (centres unmarked) [Compound 9]
Acetyl-amino-oxopimelate, Raw data [10]: 6696.89 and 6125.64 and 5614.65 | Acetyl-aminoadipate, Raw data [10]: 373220.66 and 356398.25 and 363487.19 | Acetyl-diaminopimelate, Raw data [10]: 268291.72 and 294087.29 and 265596.05 | Allysine, Raw data [10]: 6339.98 and 6256.07 and 3388.68 | Amino-oxoheptanedioate, Raw data [10]: 67628.76 and 66386.61 and 73890.51 | Aminoadipate, Raw data [10]: 230713.39 and 278620.19 and 273252.31 | Glutamic acid, Raw data [10]: 95052793.71 and 89933952.73 and 93441271.33 | Lysine or Methylornithine, Raw data [10]: 376867.18 and 321105.18 and 351101.87 | Saccharopine, Raw data [10]: 4344892.84 and 4372904.79 and 3935929.36 | Succinyl-diaminopimelate, Raw data [10]: 61950.05 and 84823.10 and 63130.16 | diaminopimelate, Raw data [10]: 182757.00 and 205469.42 and 201059.38

CC(=O)NC[C@H]1CN(c2ccc(N3CCOCC3)c(F)c2)C(=O)O1 [Linezolid, linezolid]
CFU/ml, Day 0 (M. tuberculosis H37Rv [11]): 103000 CFU/ml | CFU/ml, Day 2 (M. tuberculosis H37Rv [11]): 400000 CFU/ml and 600000 CFU/ml | CFU/ml, Day 4 (M. tuberculosis H37Rv [11]): 140000 CFU/ml and 70000 CFU/ml | CFU/ml, Day 7 (M. tuberculosis H37Rv [11]): 70000 CFU/ml and 53000 CFU/ml | CFU/ml, Day 14 (M. tuberculosis H37Rv [11]): 8600 CFU/ml and 7100 CFU/ml | IC50 (HepG2 cells [3]; HepG2, read-out: JG IC50): > 100 µM | IC50 ([6]; HepG2, read-out: SDH-A IC50): > 100 µM | COX1 production [8]: selective inhibition of COX1 production

COc1c(N2C[C@@H]3CCCN[C@@H]3C2)c(F)cc2c(=O)c(C(=O)O)cn(C3CC3)c12 [Moxifloxacin]
logCFUs per mouse (lungs) (M. tuberculosis H37Rv [12]): 3.2 logCFUs per mouse and 3.3 logCFUs per mouse (2×) and 2.4 logCFUs per mouse and 2.9 logCFUs per mouse and 3.5 logCFUs per mouse and 3.8 logCFUs per mouse (2×) and 2.6 logCFUs per mouse | logCFUs per mouse (lungs), Mean (M. tuberculosis H37Rv [12]): 3 logCFUs per mouse and 3.4 logCFUs per mouse | logCFUs per mouse (lungs) (M. tuberculosis): 2.5 logCFUs per mouse (2×) and 2.3 logCFUs per mouse and 1.9 logCFUs per mouse and 2.2 logCFUs per mouse | logCFUs per mouse (lungs), Mean (M. tuberculosis): 2.3 logCFUs per mouse | MIC, +1mM Lysine (M. tuberculosis H37Rv [13]): 2.04 and 3.47 | MIC, +1mM Lysine, Ave (M. tuberculosis H37Rv [13]): 2.75 | MIC, No Lysine (M. tuberculosis H37Rv [13]): 1.02 and 1.45 | MIC, No Lysine, Ave (M. tuberculosis H37Rv [13]): 1.23

O=[N+]([O-])c1cn2c(n1)OC[C@@H](OCc1ccc(OC(F)(F)F)cc1)C2 [Pa, pretomanid]
logCFUs per mouse (lungs) (M. tuberculosis H37Rv [14]): 4.68 logCFUs per mouse and 4.53 logCFUs per mouse and 4.19 logCFUs per mouse and 4.48 logCFUs per mouse and 4.10 logCFUs per mouse | logCFUs per mouse (lungs), Mean (M. tuberculosis H37Rv [14]): 4.4 logCFUs per mouse | change in lung CFU over the treatment period (M. tuberculosis H37Rv [14]; mouse): significant decrease in CFU

CO[C@H]1/C=C/O[C@@]2(C)Oc3c(C)c(O)c4c(O)c(c(/C=N/N5CCN(C)CC5)c(O)c4c3C2=O)NC(=O)/C(C)=C\C=C\[C@H](C)[C@H](O)[C@@H](C)[C@@H](O)[C@@H](C)[C@H](OC(C)=O)[C@@H]1C [Rifampicin, rifampicin]
CFU/ml, Day 0 (M. tuberculosis H37Rv [11]): 103000 CFU/ml | CFU/ml, Day 2 (M. tuberculosis H37Rv [11]): 270000 CFU/ml and 190000 CFU/ml | CFU/ml, Day 7 (M. tuberculosis H37Rv [11]): 5000 CFU/ml and 5100 CFU/ml | CFU/ml, Day 14 (M. tuberculosis H37Rv [11]): 440 CFU/ml and 430 CFU/ml

O=C(N[C@H](CO)[C@H](O)c1ccc([N+](=O)[O-])cc1)C(Cl)Cl [chloramphenicol]
IC50 (HepG2 cells [3]; HepG2, read-out: JG IC50): > 100 µM | IC50 ([4]; HepG2, read-out: Cox IC50): 5.11 µM | IC50 ([4]; HepG2, read-out: Cox IC50, Ave): 4.6 µM | IC50 ([6]; HepG2, read-out: SDH-A IC50): > 100 µM | COX1 production [8]: selective inhibition of COX1 production | IC50 [8]: 4.44 µM and 3.97 µM and 4.95 µM

NNC(=O)c1ccncc1 [isoniazid]
MIC, +1mM Lysine (M. tuberculosis H37Rv [13]): 2.82 and 2.63 | MIC, +1mM Lysine, Ave (M. tuberculosis H37Rv [13]): 2.72 | MIC, No Lysine (M. tuberculosis H37Rv [13]): 3.02 and 3.39 | MIC, No Lysine, Ave (M. tuberculosis H37Rv [13]): 3.20
